The source of these data is patent US10130590B2, “Methods of treating cancer with atovaquone-related compounds” (DANA-FARBER CANCER INSTITUTE, INC., priority 2013, dated 2018).

SMILES strings stand for the structures.

Experiment [1] has as its system INA-6, U266 and HEL cells. Briefly: Annexin V/PI flow cytometry in STAT3-dependent cancer cells. In kind it is cell-based. To be noted: INA-6 15 μM 24 hours; U266 and HEL 20 μM 48 hours. On the procedure:
(§1) Annexin V/PI staining was performed using Annexin V:FITC Apoptosis Detection Kit I (BD Biosciences). Staining for cell cycle analysis was performed as previously described (267). Staining for cell-surface receptors was performed in 50 μl PBS+2% FBS with 2 μl antibody to IL6R (BioLegend #352803) or 5 μl antibody to gp130 (BD Biosciences #555757) for 20 minutes on ice in the dark. Cells were washed twice, then resuspended in 300 μl of the same buffer. Samples were analyzed on a BD FACSCanto II machine. Transfection and siRNA Cells were reverse-transfected using Lipofectamine RNAiMAX (Invitrogen); the culture medium was changed 24 hours later. Control siRNA (D-001210-02) and REDD1 siRNA (M-010855-01) were from Thermo Scientific Dharmacon.
Next, the effect of atovaquone on the growth and survival of STAT3-dependent cancer cells was examined Survival of the multiple myeloma cell line INA-6 is exquisitely dependent on IL-6 added to culture medium and resultant STAT3 activation. […] The other cell lines with constitutively-active STAT3, U266 and HEL, were also killed by atovaquone.

In experiment [2] the test system is K562 and AML2 cells. Briefly: Annexin V/PI and cell cycle analysis, K562 and AML2. In kind it is cell-based. To be noted: K562 20 μM, AML2 15 μM, 48 hours. Here is the method:
as §1
K562 and AML2 cells treated with atovaquone (20 and 15 μM, respectively) for 48 hours. […] Therefore, it was hypothesized that atovaquone kills cancer cells through STAT3-related and STAT3-independent mechanisms. Accordingly, the hypothesis that atovaquone inhibited another common pathway in cancer pathogenesis was considered. In particular, the mTOR pathway, which is known to be involved in cancer cell growth and survival, was investigated.

Experiment [3] relates to NF-κB. Briefly: NF-κB cell-based reporter system. On the procedure:
To determine if atovaquone inhibits STAT3, it was tested in a cell-based reporter system of STAT3 transcriptional activity (Nelson E A, et al. (2008) Nifuroxazide inhibits survival of multiple myeloma cells by directly inhibiting STAT3. Blood 112(13):5095-5102). These cells lack basal STAT3 activation; upon IL-6 treatment, STAT3 becomes activated and drives transcription of a STAT3-dependent luciferase reporter gene. The STAT3-luc reporter cells were pre-treated with drug for 1 hour, then stimulated with IL-6 (10 ng/ml) for 5 hr. Activity of firefly luciferase was measured and normalized by cell viability (Cell Titer Glo). […] To determine if atovaquone inhibits STAT3 activity specifically over other transcription factors, it was tested in cell-based reporter systems for STAT1 and STAT5, two other STAT family members, and NF-κB, an unrelated transcription factor.

In the case of `O=C1C(O)=C([C@H]2CC[C@H](c3ccc(Cl)cc3)CC2)C(=O)c2ccccc21` [atovaquone, trans-2-[4-(4-chlorophenyl)cyclohexyl]-3-hydroxy-1,4-naphthalenedione], in experiment [1], the “apoptosis (annexin V and PI staining)” value is “inducing apoptotic cell death”. In addition, the “mode of loss of viability” value in experiment [2] was “apoptosis and cell cycle arrest”. Moreover, in experiment [3], the “NF-κB transcription factor activity” value was “modestly affected at the higher doses”.
